Results from patent publication US6040149A, “Assay for identifying agents which act on the ceramide-activated protein kinase, kinase suppressor of ras, and methods of using said agents” (priority 1997, dated 2000).
Like-named read-outs stand apart in the source and are kept apart here.

How the values were obtained:
[1] = biological target: T1, KSR (Mus musculus, UniProt Q61097); assay: KSR autophosphorylation in vitro; type: biochemical, mouse (KSR immunoprecipitated from COS-7 cells); design: Raf-1 peptides as substrate
T1 sequence (Q61097 1-873): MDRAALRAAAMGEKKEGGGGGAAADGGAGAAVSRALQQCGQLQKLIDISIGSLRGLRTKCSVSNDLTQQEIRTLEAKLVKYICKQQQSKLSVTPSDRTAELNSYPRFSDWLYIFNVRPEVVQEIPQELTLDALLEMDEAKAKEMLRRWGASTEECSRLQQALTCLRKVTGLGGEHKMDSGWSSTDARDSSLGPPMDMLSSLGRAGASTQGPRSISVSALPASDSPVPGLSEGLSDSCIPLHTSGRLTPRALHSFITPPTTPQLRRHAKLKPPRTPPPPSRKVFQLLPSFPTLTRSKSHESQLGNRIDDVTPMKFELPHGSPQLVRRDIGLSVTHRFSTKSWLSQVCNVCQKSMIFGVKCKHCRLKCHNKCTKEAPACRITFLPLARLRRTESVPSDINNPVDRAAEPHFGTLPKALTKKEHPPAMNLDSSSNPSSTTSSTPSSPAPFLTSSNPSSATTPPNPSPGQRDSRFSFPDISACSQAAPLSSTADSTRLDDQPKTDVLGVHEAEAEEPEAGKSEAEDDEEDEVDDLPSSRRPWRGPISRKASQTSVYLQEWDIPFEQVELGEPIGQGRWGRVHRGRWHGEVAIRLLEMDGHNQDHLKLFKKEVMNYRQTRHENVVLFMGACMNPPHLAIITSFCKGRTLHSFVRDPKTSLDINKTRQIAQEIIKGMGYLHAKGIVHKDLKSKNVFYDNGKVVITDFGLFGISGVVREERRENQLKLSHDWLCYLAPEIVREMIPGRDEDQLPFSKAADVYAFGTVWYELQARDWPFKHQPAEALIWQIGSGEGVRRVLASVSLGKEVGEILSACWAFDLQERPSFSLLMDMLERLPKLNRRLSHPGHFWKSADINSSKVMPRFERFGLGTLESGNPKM
Protocol: Phosphorylated KSR was resolved and detected as in FIG. 2A.
KSR was immunoprecipitated as above from 0.8 mg NP-40 lysate protein with 40 μl agarose-conjugated anti-Flag antibody at 4° C. for 4 hrs or overnight. […] The reaction was stopped by addition of Laemmli sample buffer. Samples were resolved by 7.5% sodium dodecyl sulfate-polyacrylamide gel electrophoresis (SDS-PAGE) and autoradiographed.

[2] = biological target: T1, KSR; assay: KSR activity toward Raf-1 peptides in vitro; type: biochemical, mouse (KSR immunoprecipitated from COS-7 cells); design: Raf-1 peptides as substrate; conditions: 30 nM
Protocol: The wild type peptide contains eight potential phosphorylation sites (shown in bold). Substitution of alanines and glycines for serines and threonines generated one peptide (TTLP-peptide) containing only two potential phosphorylation sites (Thr^268,269) and another peptide (AALP-peptide) with no potential phosphorylation sites.
FIG. 28A--Flag-tagged KSR was immunoprecipitated from 0.2 mg COS-7 lysate, and assayed with TTLP- or AALP-peptides in the presence of 30 nM ceramide (Avanti) or diluent (DMSO). Background counts per minute (cpm) derived from samples incubated with the AALP-peptide which contains no phosphorylation sites were subtracted from all points. Background cpm always represented less than 25% of the untreated total.
FIG. 28B--Flag-tagged KSR immunoprecipitated from 0.2 mg COS-7 lysate was assayed with TTLP- or AALP-peptides in the presence of ceramide or diluent for 45 min as described in FIG. 7A.
FIG. 28C--Flag-tagged KSR was immunoprecipitated from 0.15 mg COS-7 lysate and assayed with TTLP- or AALP-peptides for 20 min in the presence of 30 nM of the indicated lipid second messengers as described in FIG. 28A (AA: arachidonic acid; LPA: lyso phosphatidic acid; PMA: phorbol 12-myristate 13-acetate; DAG: 1,2-diacylglycerol).
KSR-bound beads were incubated with reaction buffer B plus 10 mM MnCl2, 5 μM ATP and [γ-^32 P]ATP at 22° C. for the period of time indicated in the presence of 0.3 mM synthetic Raf-peptide or substrate peptides specific for other Ser/Thr protein kinases. […] (SEQ ID NO.3). Substitution of glycines and alanines for serines and threonines generated one peptide (termed TTLP-peptide) containing only two potential phosphorylation sites at Thr^268,269 (in bold), […] (SEQ ID NO. 24), and another peptide (termed AALP-peptide; SEQ ID No.6) with no potential phosphorylation sites, […] (SEQ ID No.25). The amino acid sequences of substrate peptides specific for other protein kinases (Joseph et al., 1993) are: […] (SEQ ID NO.26) (PKA); […] (SEQ ID NO.27) (S6 kinase); […] (SEQ ID NO.28)(CK II); […] (SEQ ID NO.29) (CaM kinase II); and […] (SEQ ID NO.30) (PKC). […] Substrate peptides for PKA and PKC were from Sigma (St. Louis, Mo.). The reaction was stopped by addition of a stop solution containing 0.5 M ATP in 90% formic acid. The beads were removed by centrifugation at 5000×g for 2 min and the supernatant was loaded on P81 Whatman filter paper. The filter was air dried and washed in 4 mM Na2 H2 P2 O7, 1 mM acetic acid for one hour. The filter was baked at 90° C. for 10 min and quantified by Cerenkov counting using a Beckman LS 5000TD scintillation counter. In some experiments, samples were separated by C18 reverse-phase chromatography on HPLC (Mathias et al., 1991) to verify the results of the filter assay. Virtually identical results were obtained with both methods.

[3] = system: ceramide-activated protein kinase; conditions: generation of other lipid second messengers, refs [111, 112]; cited from earlier work
[4] = system: ceramide-activated protein kinase; assay: EGFR peptide phosphorylation in a cell-free system (HL-60 nuclei-free supernate); type: biochemical, human (HL-60 cells); conditions: GTP and GTP-γ-S 0.25 to 200 μM; sphingomyelinase 1×10^-3 U ml^-1, 5 minutes; phospholipases 40- to 400-fold higher
Protocol: Effect of TNF-α on ceramide-activated protein kinase activity. HL-60 cells were incubated in serum-free medium and homogenized (as in FIG. 9). […] ATP (750 μM, 4000 dpm pmol^-1), and 75 μl of reaction buffer. […] Phosphorylated peptide was first run on a C18 Sep-Pak cartridge, then resolved by C18 reverse-phase HPLC (Waters, Milford, Mass.), with a linear gradient of acetonitrile. The peptide eluted at 30% acetonitrile, as determined by monitoring Cerenkov radiation in 1-ml fractions. Background activity was subtracted from each point. (A) Kinetics of TNF-α (30 nM)-stimulated EGFR peptide phosphorylation. Values (mean) represent data from four experiments. (B) Concentration dependence of EGFR peptide phosphorylation at 5 minutes of stimulation with TNF-α (0.01 to 30 nM). Values (mean) represent data derived from duplicate points in two experiments. The SEM of the values in (A) was 18% and the mean range of values in (B) was 3%.
Effect of phospholipases on ceramide-activated protein kinase activity. Nuclei-free supernates, prepared as in FIG. 9, were first incubated with TNF-α (3 nM) or added directly to reaction mixtures that contained various phospholipases; sphingomyelinase (SMase) (1×10^-3 U ml^-1, S. aureus), phospholipase A2 (PlA2) (3.8×10^-2 and 3.8×10^-1 U ml^-1, Vipera ruselli), phospholipase C (PLC) (3.8×10^-2 U ml^-1, Bacillus cereus) and phospholipase D (PLD) (3.8×10^-2 U ml^-1, Streptomyces chromocuscus). Peptide phosphorylation was measured as in FIG. 10. Control value represents peptide phosphorylation in the absence of phospholipases or TNF-α. Values (mean±SEM) represent data derived from duplicate samples in three experiments. *P<0.001 compared to control.
The effect of TNF-α on ceramide-activated protein kinase activity was assessed. […] For studies assessing the effect of TNFα in broken cell preparations, nuclei-free supernates were incubated under conditions sufficient for stimulation of neutral sphingomyelinase in a reaction mixture that also contained EGFR peptide and γ-^32 P-labeled ATP. Phosphorylated peptide was resolved by high-performance liquid chromatograph (HPLC) and quantified by Cerenkov counting. Kinase activity was calculated from the specific activity of [γ-^32 P] ATP and incorporation of ^32 P into EGFR peptide. Background activity was subtracted from each point. […] TNF-α stimulation of kinase activity was evident by 1 minute and demonstrable for at least 10 minutes. If the initial incubation with TNF-α at 4° C. was omitted and TNF was added directly to the reaction mixture at 22° C., the reaction was delayed. […] TNF-α enhanced kinase activity in a concentration-dependent manner at 5 minutes (FIG. 10B). […] This is similar to the ED50 of 200 pM for stimulation of ceramide-activated protein kinase by TNF-α in intact cells. TNF-α enhanced kinase activity in a total of 20 separate studies.
Control activity reflects several TNF-α-independent protein kinases that are known to phosphorylate EGFR peptide on Thr^669.

[5] = system: Raf-1; assay: Kinase activity of immunoprecipitated Raf-1 toward MEK1 after HL-60 cell stimulation; type: cell-based, human (HL-60 cells)
Protocol: Recovery of MEK1 was monitored by western blot (Bottom Panel). Identical results were obtained with cells stimulated for 5 min with TNF.
Recovery of MEK1 was monitored by western blot (Bottom Panel).
These studies indicate that Raf-1 is a component of the sphingomyelin pathway mediating TNF action.
MEK1 autophosphorylation was for 45 min. An autoradiogram of MEK1 phosphorylation (top panel) and recovery of MEK1 protein by western blot (bottom panel) are shown. For western blot, proteins separated by SDS-PAGE were electrotransferred to an Immobilon PVDF membrane at 12 volts overnight at 4° C. Membranes were then blocked with 2% BSA in TBS [20 mM Tris, pH 7.6, 137 mM NaCl] for 1 hr and washed with TBST (TBS containing 0.2% Tween-20).

1,2-diacylglycerol
effect on activation of KSR [1]: no effect
effect on activation of KSR towards Raf-peptide [2]: no effect
effect on kinase activity [3]: failed to enhance kinase activity

Nc1nc2c(ncn2[C@@H]2O[C@H](COP(=O)(O)OP(=O)(O)OP(=O)(O)O)[C@@H](O)[C@H]2O)c(=O)[nH]1 [GTP, Guanosine triphosphate]
effect on kinase activity [4]: did not affect kinase activity

Nc1nc2c(ncn2[C@@H]2O[C@H](COP(=O)(O)OP(=O)(O)OP(O)(O)=S)[C@@H](O)[C@H]2O)c(=O)[nH]1 [GTP-γ-S, guanosine-5'-O-(3-thiotriphosphate)]
effect on kinase activity [4]: did not affect kinase activity

CCCCC/C=C\C/C=C\C/C=C\C/C=C\CCCC(=O)O [arachidonic acid]
effect on activation of KSR [1]: no effect
effect on activation of KSR towards Raf-peptide [2]: no effect
effect on kinase activity [3]: failed to enhance kinase activity

Granulocyte-macrophage colony stimulating factor: induces monocytic differentiation of HL-60 cells
increase of Raf-1 activity ([5]; GM-CSF 500 pM): 2.5 fold

PDGF
increase of Raf-1 activation ([5]; PDGF 5 nM, after TPA induction of PDGF receptors): 4 fold

insulin: insulin
increase of Raf-1 activity ([5]; insulin 100 nM): 4 fold

lyso-phosphatidic acid
effect on activation of KSR [1]: no effect
effect on activation of KSR towards Raf-peptide [2]: no effect

phosphatidic acid
effect on kinase activity [3]: failed to enhance kinase activity

phosphatidylcholine
effect on activation of KSR [1]: no effect

phosphatidylserine
effect on activation of KSR [1]: no effect
